# Measurements reported in patent US20210315824A1, “PHARMACEUTICAL FORMULATIONS COMPRISING NITROCATECHOL DERIVATIVES AND METHODS OF MAKING THE SAME” (BIAL - PORTELA & CA, S.A., priority 2009, published 2021).
# Experiment: Bulk and tapped density of granules / API
# Assay type: physicochemical
# Details: API alone, prior to granulation and/or formulation
# Source text: It is within the ability of one of skill in the art to determine the bulk density of a compound or composition using methods generally accepted in the art. However, suitable methods include, for example, the European Pharmacopeia edition 6, Test 2.9.15 “apparent volume,” pages 285-286, EDQM, 2007, and USP 31, vol. 1, test <616> page 231-232, The United States Pharmacopeia Convention, 2008. Another example of a suitable method is described below:
# Apparatus: • settling apparatus capable of producing in 1 minute 250±15 taps from a height of 3±0.2 mm. The support for the graduated cylinder with its holder, has a mass of 450±5 g • a 250 ml graduated cylinder (2 ml intervals) with a mass of 220±40 g
# Method: Into a dry cylinder, introduce without compacting, 100.0 g (m g) of the test substance. […] Read the unsettled apparent volume (V0) to the nearest milliliter. Carry out 10, 500 and 1250 taps and read the corresponding volumes V10, V500, V1250, to the nearest milliliter. […]
# Alternatively, if it is not possible to select 100.0 g, select a test sample of any mass but with a volume between 50 ml and 250 ml, measure its apparent volume, V0 as described above, and weigh the sample and specify the mass in the expression of results. Bulk/apparent density may then be determined in g/ml using the following formula: […]
# Tapped apparent density may then be determined in g/ml using the following formula: […]
row,bulk density,SMILES
1,less than 0.1 g/ml,"Cc1c(Cl)c(C)[n+]([O-])c(Cl)c1-c1noc(-c2cc(O)c(O)c([N+](=O)[O-])c2)n1 [2,5-dichloro-3-(5-(3,4-dihydroxy-5-nitrophenyl)-1,2,4-oxadiazol-3-yl)-4,6-dimethylpyridine 1-oxide]"
2,around 0.2 g/ml,"Cc1nc(Cl)c(-c2noc(-c3cc(O)c(O)c([N+](=O)[O-])c3)n2)c(C)c1Cl [5-[3-(2,5-dichloro-4,6-dimethylpyridin-3-yl)-[1,2,4]oxadiazol-5-yl]-3-nitrobenzene-1,2-diol]"
